Values after ≈ are worked out from the molar mass of the structure shown. Where only a bound is given, the exact number is not on record here.

The results in this text go back to patent publication USRE40086E1, “Method for treating bacterial infection with novel 7-substituted-9-substituted amino 6-demethyl-6-deoxytetracyclines” (Wyeth Holdings Corporation, priority 1991, dated 2008).

Holding throughout (experiment): MIC, agar dilution
What all share (assay type): cell-based
On the technique in general: In agar dilution the substance is mixed into plates at graded concentrations.

Test [1] deals with S. aureus UBMS 88-5 (tetM). Particulars: S. aureus UBMS 88-5 (tetM).
For test [2], the system named is E. coli UBMS 89-2 (Sensitive). As to conditions: E. coli UBMS 89-2 (Sensitive).
For test [3], the system named is S. aureus IVES 2943 (meth. resistant). Particulars: S. aureus IVES 2943 (meth. resistant).
The test system of test [4] is S. aureus UBMS 90-2 (tetM). Particulars: S. aureus UBMS 90-2 (tetM).
Another test concerns E. faecalis 12201. As to conditions: E. faecalis 12201.
Test [5] relates to S. haemolyticus AVAH 88-3. Particulars: S. haemolyticus AVAH 88-3.
Test [6] concerns S. aureus Smith (Sensitive). As to conditions: S. aureus Smith (Sensitive).
Test [7] concerns S. aureus IVES 1983 (meth. resistant). Particulars: S. aureus IVES 1983 (meth. resistant).
Test [8] concerns S. aureus UBMS 90-3 (Sensitive). Particulars: S. aureus UBMS 90-3 (Sensitive).
The test system of test [9] is E. coli UBMS 88-2 (Sensitive). Particulars: E. coli UBMS 88-2 (Sensitive).
In another test the test system is E. coli UBMS 88-1 (tetB). As to conditions: E. coli UBMS 88-1 (tetB).
Another test deals with E. coli UBMS 89-1 (tetM). As to conditions: E. coli UBMS 89-1 (tetM).
For test [10], the system named is S. aureus UBMS 88-7 (tetK). Particulars: S. aureus UBMS 88-7 (tetK).
Another test has as its system E. coli ATCC 25922. Particulars: E. coli ATCC 25922.
In test [11] the test system is S. aureus UBMS 88-4 (Sensitive). Particulars: S. aureus UBMS 88-4 (Sensitive).
Test [12] relates to S. aureus ATCC 29213 (Sensitive). Particulars: S. aureus ATCC 29213 (Sensitive).
The test system of another test is E. faecalis ATCC 29212. Particulars: E. faecalis ATCC 29212.
In test [13] the test system is S. aureus UBMS 90-1 (tetM). Particulars: S. aureus UBMS 90-1 (tetM).

The term MIC denotes the lowest concentration found to suppress growth. High values mean a less susceptible organism, low ones a more susceptible organism. Consider `CCN(CC)c1cc(NC(C)=O)c(O)c2c1CC1CC3C(N(C)C)C(O)=C(C(N)=O)C(=O)C3(O)C(O)=C1C2=O` (stereo not drawn) [F, 9-(Acetylamino)-7-(diethylamino)-6-demethyl-6-deoxytetracycline], for which the MIC in test [1] worked out at 0.5 µg/mL (≈ 0.922 µM); in [2] it was 32 µg/mL (≈ 59 µM); in test [3], 2 µg/mL (≈ 3.69 µM); in test [4], 0.5 µg/mL (≈ 0.922 µM); in the test with E. faecalis 12201, 4 µg/mL (≈ 7.37 µM); in test [5], 2 µg/mL (≈ 3.69 µM). For the same compound, the MIC in test [6] was 0.12 µg/mL (≈ 0.221 µM); in test [7], 4 µg/mL (≈ 7.37 µM); in test [8], 0.12 µg/mL (≈ 0.221 µM); in test [9] it was 32 µg/mL (≈ 59 µM); with E. coli UBMS 88-1 (tetB), over 32 µg/mL; against E. coli UBMS 89-1 (tetM) it was 4 µg/mL (≈ 7.37 µM). Further, the minimal inhibitory concentration (MIC) in test [10] is 2 µg/mL (≈ 3.69 µM); against E. coli ATCC 25922, 4 µg/mL (≈ 7.37 µM); in test [11], 0.25 µg/mL (≈ 0.461 µM); in test [12] it was “≦0.015 μg/ml”; against E. faecalis ATCC 29212 it was 0.25 µg/mL (≈ 0.461 µM); in test [13], 2 µg/mL (≈ 3.69 µM).

As to `CN(C)c1cc(NC(=O)c2cccs2)c(O)c2c1CC1CC3C(N(C)C)C(O)=C(C(N)=O)C(=O)C3(O)C(O)=C1C2=O` (stereo not drawn) [Z, 7-(Dimethylamino)-9-[(2-thienylcarbonyl)amino]-6-demethyl-6-deoxytetracycline], the MIC in test [1] was 8 µg/mL (≈ 13.7 µM); in test [2] it was over 32 µg/mL; in [3], 32 µg/mL (≈ 54.9 µM); in [4], 4 µg/mL (≈ 6.87 µM); in the test with E. faecalis 12201, 8 µg/mL (≈ 13.7 µM); in test [5], 8 µg/mL (≈ 13.7 µM). Further, the minimum inhibitory concentration (MIC) is 2 µg/mL (≈ 3.43 µM) in [6]; 32 µg/mL (≈ 54.9 µM) in test [7]; 2 µg/mL (≈ 3.43 µM) in test [8]; over 32 µg/mL in test [9]; over 32 µg/mL against E. coli UBMS 88-1 (tetB); over 32 µg/mL against E. coli UBMS 89-1 (tetM). Moreover, the MIC in test [10] was found to be 32 µg/mL (≈ 54.9 µM); in the test with E. coli ATCC 25922 it was 32 µg/mL (≈ 54.9 µM); in test [11], 8 µg/mL (≈ 13.7 µM); in test [12] it was 0.5 µg/mL (≈ 0.858 µM); in the test on E. faecalis ATCC 29212, 8 µg/mL (≈ 13.7 µM); in test [13], 4 µg/mL (≈ 6.87 µM).

In the case of `CN(C)c1cc(NC(=O)c2ccco2)c(O)c2c1CC1CC3C(N(C)C)C(O)=C(C(N)=O)C(=O)C3(O)C(O)=C1C2=O` (stereo not drawn) [Y, 7-(Dimethylamino)-9-((2-furanylcarbonyl)amino)-6-demethyl-6-deoxytetracycline], the minimal inhibitory concentration (MIC) was 16 µg/mL (≈ 28.2 µM) in test [1]; over 32 µg/mL in [2]; over 32 µg/mL in [3]; 8 µg/mL (≈ 14.1 µM) in [4]; 32 µg/mL (≈ 56.5 µM) in the test on E. faecalis 12201; over 32 µg/mL in test [5]. Also, the MIC in test [6] is 2 µg/mL (≈ 3.53 µM); in [7] it was over 32 µg/mL; in test [8], 2 µg/mL (≈ 3.53 µM); in [9], over 32 µg/mL; in the test on E. coli UBMS 88-1 (tetB), over 32 µg/mL; against E. coli UBMS 89-1 (tetM), over 32 µg/mL. Further, the MIC in [10] was over 32 µg/mL; against E. coli ATCC 25922, over 32 µg/mL; in test [11] it was 4 µg/mL (≈ 7.06 µM); in test [12], 0.5 µg/mL (≈ 0.883 µM); with E. faecalis ATCC 29212, 8 µg/mL (≈ 14.1 µM); in [13] it was 32 µg/mL (≈ 56.5 µM).

Regarding `CN(C)c1cc(N(C)C)c2c(c1O)C(=O)C1=C(O)C3(O)C(=O)C(C(N)=O)=C(O)C(N(C)C)C3CC1C2` (stereo not drawn) [C, 7-(Dimethylamino)-9-(dimethylamino)-6-demethyl-6-deoxytetracycline], the minimal inhibitory concentration (MIC) is 0.12 µg/mL (≈ 0.24 µM) in [1]; 0.5 µg/mL (≈ 0.999 µM) in test [2]; 1 µg/mL (≈ 2 µM) in test [3]; 0.12 µg/mL (≈ 0.24 µM) in test [4]; 0.5 µg/mL (≈ 0.999 µM) against E. faecalis 12201; 0.12 µg/mL (≈ 0.24 µM) in test [5]. The MIC in test [6] was 0.03 µg/mL (≈ 0.0599 µM); in test [7] it was 1 µg/mL (≈ 2 µM); in [8] it was 0.03 µg/mL (≈ 0.0599 µM); in [9] it was 0.25 µg/mL (≈ 0.499 µM); in the test with E. coli UBMS 88-1 (tetB), 16 µg/mL (≈ 32 µM); against E. coli UBMS 89-1 (tetM), 1 µg/mL (≈ 2 µM). Also, the MIC in [10] is 0.25 µg/mL (≈ 0.499 µM); with E. coli ATCC 25922, 0.25 µg/mL (≈ 0.499 µM); in test [11], 0.03 µg/mL (≈ 0.0599 µM); in [12] it was “≦0.015 μg/ml”; with E. faecalis ATCC 29212, 0.06 µg/mL (≈ 0.12 µM); in [13], 0.5 µg/mL (≈ 0.999 µM).

For `CN(C)c1cc(NC(=O)c2ccc([N+](=O)[O-])cc2)c(O)c2c1CC1CC3C(N(C)C)C(O)=C(C(N)=O)C(=O)C3(O)C(O)=C1C2=O` (stereo not drawn) [V, 7-(Dimethylamino)-9-[(4-nitrobenzoyl)amino]-6-demethyl-6-deoxytetracycline], the MIC in test [1] was 2 µg/mL (≈ 3.22 µM); in test [2], over 32 µg/mL; in test [3], 4 µg/mL (≈ 6.43 µM); in test [4], 1 µg/mL (≈ 1.61 µM); against E. faecalis 12201, 4 µg/mL (≈ 6.43 µM); in [5], 4 µg/mL (≈ 6.43 µM). Besides, the MIC in test [6] is 0.5 µg/mL (≈ 0.804 µM); in test [7], 8 µg/mL (≈ 12.9 µM); in test [8], 0.5 µg/mL (≈ 0.804 µM); in [9], over 32 µg/mL; in the test with E. coli UBMS 88-1 (tetB), over 32 µg/mL; in the test on E. coli UBMS 89-1 (tetM), over 32 µg/mL. Further, the MIC in [10] is 4 µg/mL (≈ 6.43 µM); in the test on E. coli ATCC 25922, over 32 µg/mL; in test [11], 2 µg/mL (≈ 3.22 µM); in test [12], 0.25 µg/mL (≈ 0.402 µM); in the test on E. faecalis ATCC 29212, 4 µg/mL (≈ 6.43 µM); in [13] it was 2 µg/mL (≈ 3.22 µM).

Consider `CN(C)c1cc(NC(=O)c2ccc(N)cc2)c(O)c2c1CC1CC3C(N(C)C)C(O)=C(C(N)=O)C(=O)C3(O)C(O)=C1C2=O.O=S(=O)(O)O` (stereo not drawn) [X, 9-[(4-Aminobenzoyl)amino)-7-(dimethylamino)-6-demethyl-6-deoxytetracycline sulfate], for which the MIC in test [1] is 8 µg/mL; in test [2], over 32 µg/mL; in [3] it was over 32 µg/mL; in test [4], 8 µg/mL; in the test with E. faecalis 12201, 32 µg/mL; in test [5], 8 µg/mL. Besides, the minimal inhibitory concentration (MIC) is 1 µg/mL in test [6]; over 32 µg/mL in [7]; 1 µg/mL in test [8]; over 32 µg/mL in test [9]; over 32 µg/mL against E. coli UBMS 88-1 (tetB); over 32 µg/mL in the test with E. coli UBMS 89-1 (tetM). The MIC is 8 µg/mL in test [10]; over 32 µg/mL against E. coli ATCC 25922; 1 µg/mL in test [11]; 0.5 µg/mL in test [12]; 8 µg/mL in the test on E. faecalis ATCC 29212; 16 µg/mL in [13].

With `CN(C)c1ccc(C(=O)Nc2cc(N(C)C)c3c(c2O)C(=O)C2=C(O)[C@]4(O)C(=O)C(C(N)=O)=C(O)[C@@H](N(C)C)[C@@H]4C[C@@H]2C3)cc1` [W, 7-(Dimethylamino)-9-[[(4-dimethylamino)benzoyl)amino)-6-demethyl-6-deoxytetracycline], the MIC in [1] was 32 µg/mL (≈ 51.6 µM); in test [2], over 32 µg/mL; in [3], 8 µg/mL (≈ 12.9 µM); in [4] it was 8 µg/mL (≈ 12.9 µM); in the test on E. faecalis 12201 it was 16 µg/mL (≈ 25.8 µM); in [5], 16 µg/mL (≈ 25.8 µM). Also, the minimal inhibitory concentration (MIC) in test [6] is 4 µg/mL (≈ 6.45 µM); in [7], 8 µg/mL (≈ 12.9 µM); in test [8], 8 µg/mL (≈ 12.9 µM); in [9], over 32 µg/mL; with E. coli UBMS 88-1 (tetB) it was over 32 µg/mL; in the test on E. coli UBMS 89-1 (tetM), over 32 µg/mL. For the same compound, the MIC was 16 µg/mL (≈ 25.8 µM) in [10]; over 32 µg/mL in the test with E. coli ATCC 25922; 8 µg/mL (≈ 12.9 µM) in test [11]; 2 µg/mL (≈ 3.23 µM) in [12]; 8 µg/mL (≈ 12.9 µM) in the test on E. faecalis ATCC 29212; 16 µg/mL (≈ 25.8 µM) in [13].

With `CCN(CC)c1cc(NC(C)=O)c(O)c2c1C[C@H]1C[C@H]3[C@H](N(C)C)C(O)=C(C(N)=O)C(=O)[C@@]3(O)C(O)=C1C2=O.O=S(=O)(O)O.O=S(=O)(O)O` [Compound E, 9-(Acetylamino)-7-(diethylamino)-6-demethyl-6-deoxytetracycline disulfate], the MIC in test [1] is 4 µg/mL; in test [2] it was over 32 µg/mL; in test [3] it was 8 µg/mL; in test [4], 2 µg/mL; in the test with E. faecalis 12201 it was 16 µg/mL; in [5], 8 µg/mL. Further, the MIC in test [6] is 0.5 µg/mL; in test [7] it was 16 µg/mL; in test [8] it was 0.5 µg/mL; in test [9], over 32 µg/mL; against E. coli UBMS 88-1 (tetB), over 32 µg/mL; against E. coli UBMS 89-1 (tetM), 32 µg/mL. The MIC in test [10] was 4 µg/mL; against E. coli ATCC 25922, 32 µg/mL; in [11], 0.5 µg/mL; in test [12], “≦0.015 μg/ml”; against E. faecalis ATCC 29212, 2.0 µg/mL; in [13], 8 µg/mL.
